Where “and” joins values, the source holds several entries; their conditions need not be identical. Equal values may be shown once. Inconclusive results and toxic doses are left out.
Test system: BDF1 mice, P388 leukemia ip, median survival T/C
Assay: NCI In Vivo Anticancer Drug Screen. Data for tumor model P388 Leukemia (intraperitoneal) in B6D2F1 (BDF1) mice
Conditions: endpoint: median survival time, higher = longer survival
Summary of the method: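 Mice carrying the transplantable tumour receive compound or vehicle. Survival is followed in each arm, and the treated measure is divided by the vehicle measure.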

[1] = dose: 100.0 mg/kg/injection, schedule: Q04DX003 (ip), vehicle: saline
[2] = dose: 200.0 mg/kg/injection, schedule: Q04DX003 (ip), vehicle: saline
[3] = dose: 200.0 mg/kg/injection, schedule: Q04DX002 (ip), vehicle: saline with Tween-80
[4] = dose: 400.0 mg/kg/injection, schedule: Q04DX002 (ip), vehicle: saline with Tween-80
[5] = dose: 50.0 mg/kg/injection, schedule: Q01DX009 (ip), vehicle: saline with Tween-80
[6] = dose: 100.0 mg/kg/injection, schedule: Q01DX009 (ip), vehicle: saline with Tween-80
[7] = dose: 200.0 mg/kg/injection, schedule: Q01DX009 (ip), vehicle: saline with Tween-80
[8] = dose: 400.0 mg/kg/injection, schedule: Q01DX009 (ip), vehicle: saline with Tween-80
[9] = dose: 100.0 mg/kg/injection, schedule: Q01DX009 (ip), vehicle: Klucel (hydroxypropylcellulose) (HPC)
[10] = dose: 100.0 mg/kg/injection, schedule: Q04DX003 (ip), vehicle: Klucel (hydroxypropylcellulose) (HPC)
[11] = dose: 200.0 mg/kg/injection, schedule: Q01DX009 (ip), vehicle: Klucel (hydroxypropylcellulose) (HPC)
[12] = dose: 200.0 mg/kg/injection, schedule: Q04DX003 (ip), vehicle: Klucel (hydroxypropylcellulose) (HPC)
[13] = dose: 400.0 mg/kg/injection, schedule: Q04DX003 (ip), vehicle: Klucel (hydroxypropylcellulose) (HPC)
[14] = dose: 25.0 mg/kg/injection, schedule: Q01DX009 (ip), vehicle: saline
[15] = dose: 50.0 mg/kg/injection, schedule: Q01DX009 (ip), vehicle: saline
[16] = dose: 50.0 mg/kg/injection, schedule: Q04DX003 (ip), vehicle: saline
[17] = dose: 100.0 mg/kg/injection, schedule: Q01DX009 (ip), vehicle: saline
[18] = dose: 200.0 mg/kg/injection, schedule: Q01DX009 (ip), vehicle: saline
[19] = dose: 25.0 mg/kg/injection, schedule: Q04DX003 (ip), vehicle: saline
[20] = dose: 12.5 mg/kg/injection, schedule: Q01DX009 (ip), vehicle: saline with Tween-80
[21] = dose: 25.0 mg/kg/injection, schedule: Q01DX009 (ip), vehicle: saline with Tween-80
[22] = dose: 100.0 mg/kg/injection, schedule: Q04DX003 (ip), vehicle: saline with Tween-80
[23] = dose: 200.0 mg/kg/injection, schedule: Q04DX003 (ip), vehicle: saline with Tween-80
[24] = dose: 400.0 mg/kg/injection, schedule: Q04DX003 (ip), vehicle: saline with Tween-80

C(=NC(c1ccccc1)(c1ccccc1)c1ccccc1)=NC(c1ccccc1)(c1ccccc1)c1ccccc1
T/C (dose: 12.5 mg/kg/injection, schedule: Q01DX009 (ip), vehicle: gum acacia): 87 % of control
T/C (dose: 25.0 mg/kg/injection, schedule: Q01DX009 (ip), vehicle: gum acacia): 100 % of control
T/C (dose: 50.0 mg/kg/injection, schedule: Q01DX009 (ip), vehicle: gum acacia): 95 % of control
T/C (dose: 100.0 mg/kg/injection, schedule: Q01DX009 (ip), vehicle: gum acacia): 88 % of control
T/C (dose: 100.0 mg/kg/injection, schedule: Q04DX003 (ip), vehicle: gum acacia): 100 % of control
T/C (dose: 200.0 mg/kg/injection, schedule: Q01DX009 (ip), vehicle: gum acacia): 88 % of control
T/C (dose: 200.0 mg/kg/injection, schedule: Q04DX003 (ip), vehicle: gum acacia): 91 % of control

C=CC(C)(C)c1cc2cc3c(cc2oc1=O)OC(C(C)(C)OC(C)=O)C3 (configuration not stated)
T/C [1]: 107 % of control
T/C [2]: 104 % of control

CC(C)(C)S[Si](Cl)(SC(C)(C)C)SC(C)(C)C
T/C (dose: 100.0 mg/kg/injection, schedule: Q04DX002 (ip), vehicle: saline with Tween-80): 119 % of control
T/C [3]: 103 % of control
T/C [4]: 94 % of control

CC1SC(c2ccccc2)N(c2nccs2)C1=O (configuration not stated)
T/C [5]: 103 % of control
T/C [6]: 89 % of control
T/C [7]: 99 % of control

CCCCCCCCCCC(O)CN1CCN(c2ccc(C)cc2)CC1 (configuration not stated)
T/C [6]: 100 % of control
T/C (dose: 100.0 mg/kg/injection, schedule: Q04DX003 (ip), vehicle: saline sonified): 100 % of control
T/C (dose: 176.0 mg/kg/injection, schedule: Q04DX003 (ip), vehicle: saline with Tween-80): 90 % of control
T/C [7]: 100 % of control
T/C (dose: 200.0 mg/kg/injection, schedule: Q04DX003 (ip), vehicle: saline sonified): 115 % of control
T/C (dose: 264.0 mg/kg/injection, schedule: Q04DX003 (ip), vehicle: saline with Tween-80): 90 % of control
T/C [8]: 90 % of control

CCOC(=O)C(C(=O)OCC)C1c2ccccc2C(=NO)c2ccccc21 (configuration not stated)
T/C [9]: 100 % of control
T/C [10]: 112 % of control
T/C [11]: 109 % of control
T/C [12]: 104 % of control
T/C (dose: 400.0 mg/kg/injection, schedule: Q01DX009 (ip), vehicle: Klucel (hydroxypropylcellulose) (HPC)): 109 % of control
T/C [13]: 91 % of control

CC1CCC[N-]C1.CC1CCC[N-]C1.[Cl][Pt+2]([Cl])([Cl])[Cl] (configuration not stated)
T/C (dose: 3.12 mg/kg/injection, schedule: Q01DX009 (ip), vehicle: saline): 150 % of control and 154 % of control
T/C (dose: 6.25 mg/kg/injection, schedule: Q01DX009 (ip), vehicle: saline): 172 % of control
T/C (dose: 8.2 mg/kg/injection, schedule: Q01DX009 (ip), vehicle: saline): 161 % of control
T/C [14]: 154 % of control

Cc1ccc(S[Si](Sc2ccc(C)cc2)(Sc2ccc(C)cc2)Sc2ccc(C)cc2)cc1
T/C [3]: 92 % of control
T/C [4]: 100 % of control

CC(O)C1(O)C(O)CC(OC2c3cc4c(c(O)c3[C@@H]3C[C@@]2(C)OC32C=c3cc[nH]c3=N2)C(=O)c2cccc(O)c2C4=O)OC1C (some centres not stated)
T/C (dose: 0.5 mg/kg/injection, schedule: Q01DX009 (ip), vehicle: saline with Tween-80): 105 % of control
T/C (dose: 0.5 mg/kg/injection, schedule: Q01DX009 (ip), vehicle: saline): 103 % of control and 109 % of control
T/C (dose: 1.0 mg/kg/injection, schedule: Q01DX009 (ip), vehicle: saline with Tween-80): 119 % of control
T/C (dose: 1.0 mg/kg/injection, schedule: Q01DX009 (ip), vehicle: saline): 118 % of control and 124 % of control
T/C (dose: 2.0 mg/kg/injection, schedule: Q01DX009 (ip), vehicle: saline with Tween-80): 111 % of control
T/C (dose: 2.0 mg/kg/injection, schedule: Q01DX009 (ip), vehicle: saline): 111 % of control and 118 % of control
T/C (dose: 4.0 mg/kg/injection, schedule: Q01DX009 (ip), vehicle: saline with Tween-80): 117 % of control
T/C (dose: 8.0 mg/kg/injection, schedule: Q01DX009 (ip), vehicle: saline with Tween-80): 122 % of control

C#CCOC(=O)NC1CCCCC1
T/C (dose: 50.0 mg/kg/injection, schedule: Q01DX009 (ip), vehicle: Klucel (hydroxypropylcellulose) (HPC)): 100 % of control
T/C (dose: 50.0 mg/kg/injection, schedule: Q04DX003 (ip), vehicle: Klucel (hydroxypropylcellulose) (HPC)): 100 % of control
T/C [9]: 100 % of control
T/C [10]: 95 % of control
T/C [11]: 100 % of control
T/C [12]: 109 % of control

CCC(CCC(C)C1CCC2C3CC=C4CC(OC5OC(CO)C(O)C(O)C5O)CCC4(C)C3CCC12C)C(C)C (configuration not stated)
T/C [10]: 95 % of control
T/C [12]: 95 % of control

CCC(O)Cc1c[nH]c(=O)[nH]c1=O (configuration not stated)
T/C [15]: 90 % of control
T/C [16]: 104 % of control
T/C [17]: 105 % of control
T/C [1]: 102 % of control
T/C [18]: 112 % of control
T/C [2]: 109 % of control

O=c1[nH]c2cc(Cl)ccc2c(CCl)c1Cl
T/C [19]: 109 % of control
T/C [16]: 104 % of control
T/C (dose: 56.25 mg/kg/injection, schedule: Q01DX001 (ip), vehicle: saline with Tween-80): 109 % of control
T/C [1]: 100 % of control
T/C (dose: 112.5 mg/kg/injection, schedule: Q01DX001 (ip), vehicle: saline with Tween-80): 113 % of control
T/C (dose: 225.0 mg/kg/injection, schedule: Q01DX001 (ip), vehicle: saline with Tween-80): 109 % of control

CC(C(Cl)c1ccccc1)S(=O)c1ccccc1 (configuration not stated)
T/C [5]: 108 % of control
T/C [6]: 103 % of control
T/C [7]: 105 % of control

CCCC(C)(O)C#CC(C)(O)CCC (configuration not stated)
T/C [20]: 101 % of control
T/C [21]: 92 % of control
T/C [5]: 93 % of control
T/C [22]: 100 % of control
T/C [23]: 104 % of control
T/C [24]: 90 % of control

CNC(C)Cc1ccccc1OC (configuration not stated)
T/C (dose: 12.5 mg/kg/injection, schedule: Q01DX009 (ip), vehicle: saline): 89 % of control
T/C [14]: 89 % of control
T/C [19]: 88 % of control
T/C [15]: 92 % of control
T/C [16]: 92 % of control

O=c1oc2cccc(O)c2c2c1CCCC2
T/C [10]: 100 % of control
T/C [12]: 104 % of control
T/C [13]: 100 % of control

COc1ccc(/C=N\NC(=O)OC(C)(C)C)c(OC)c1OC
T/C (dose: 100.0 mg/kg/injection, schedule: Q01DX009 (ip), vehicle: acetone): 100 % of control
T/C [10]: 115 % of control
T/C (dose: 200.0 mg/kg/injection, schedule: Q01DX009 (ip), vehicle: acetone): 86 % of control
T/C [12]: 110 % of control
T/C (dose: 400.0 mg/kg/injection, schedule: Q01DX009 (ip), vehicle: acetone): 109 % of control
T/C [13]: 100 % of control

OC(CC1CCCCN1)c1ccccc1 (configuration not stated)
T/C [20]: 99 % of control
T/C [21]: 99 % of control
T/C [5]: 94 % of control and 110 % of control

COc1ccc(-c2csc(=[N+]3CCCCC3)s2)cc1
T/C (dose: 12.5 mg/kg/injection, schedule: Q04DX003 (ip), vehicle: saline): 105 % of control
T/C [19]: 122 % of control
T/C [16]: 87 % of control

OC1CC2C3C4C1C1C2C3C41 (configuration not stated)
T/C (dose: 100.0 mg/kg/injection, schedule: Q01DX001 (ip), vehicle: saline): 95 % of control
T/C [10]: 115 % of control
T/C (dose: 200.0 mg/kg/injection, schedule: Q01DX001 (ip), vehicle: saline): 86 % of control
T/C [12]: 115 % of control
T/C [13]: 90 % of control

CCCCCCCCCCCCN1CCCC(C)C1 (configuration not stated)
T/C [20]: 114 % of control
T/C [21]: 109 % of control
T/C [5]: 98 % of control and 120 % of control

Cc1cc(C)c(NS(=O)(=O)c2ccccc2)c(C)n1
T/C [22]: 100 % of control
T/C [23]: 91 % of control
T/C [24]: 91 % of control

CC[C@H](CC[C@@H](C)[C@H]1CC[C@H]2[C@@H]3CC[C@H]4C[C@@H](O)CC[C@]4(C)[C@H]3CC[C@]12C)C(C)C
T/C [22]: 100 % of control
T/C [7]: 95 % of control
T/C [8]: 100 % of control
T/C [24]: 86 % of control

O=C(CCl)NCc1cnccn1
T/C [14]: 107 % of control
T/C [15]: 102 % of control
T/C [17]: 108 % of control
T/C [1]: 94 % of control
T/C [18]: 102 % of control
T/C [2]: 117 % of control

— PubChem BioAssay AID328 (DTP/NCI, 2004)
